Source: PubChem BioAssay AID1259411 (Chemical Carcinogenesis Research Information System (CCRIS), 2018)
Active and inactive are the calls of the source. How the calls were made is not given here.

System: rodent carcinogenicity bioassays, tumor incidence
Assay: CCRIS carcinogenicity studies
In short: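 Archive of carcinogenicity, mutagenicity, tumor promotion and tumor inhibition results drawn from journals, NCI reports and other sources, expert-reviewed; covers 1985-2011 and is no longer updated.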

Q: `CC1CN(N=O)CC(C)O1` (stereo not given) was tested. Which carcinogen call (Species: FISH, Strain/Sex: SHASTA RAINBOW TROUT/MALE, FEMALE, Route: ORAL, Dose: 0, 1556 PPM IN DIET FOR 18 MO (STUDY DURATION: 18 MO), Tumor Site: Type of Lesion: LIVER: CARCINOMA, STOMACH: PAPILLOMA) did it give?
A: active; positive

Q: And the carcinogen call (Species: HAMSTER, Strain/Sex: EUROPEAN/FEMALE, Route: GAVAGE, Dose: 0, 37 MG/KG 1/WK FOR DURATION OF STUDY (STUDY DURATION: LIFETIME), Tumor Site: Type of Lesion: NASAL CAVITY: TUMOR, TRACHEA: TUMOR, LIVER: HEMANGIOENDOTHELIOMA, Tumor Site: Type of Lesion: NASAL CAVITY: TUMOR, TRACHEA: TUMOR, LIVER: HEMANGIOENDOTHELIOMA)?
A: active; positive

Q: And the carcinogen call (Species: HAMSTER, Strain/Sex: EUROPEAN/FEMALE, Route: GAVAGE, Dose: 0, 112 MG/KG 1/WK FOR DURATION OF STUDY (STUDY DURATION: LIFETIME), Tumor Site: Type of Lesion: NASAL CAVITY: TUMOR, TRACHEA: TUMOR, LUNG: TUMOR, Tumor Site: Type of Lesion: NASAL CAVITY: TUMOR, TRACHEA: TUMOR, LUNG: TUMOR)?
A: active; positive

Q: And the carcinogen call (Species: HAMSTER, Strain/Sex: EUROPEAN/FEMALE, Route: SUBCUTANEOUS, Dose: 0, 85 MG/KG 1/WK FOR DURATION OF STUDY (STUDY DURATION: LIFETIME), Tumor Site: Type of Lesion: NASAL CAVITY: TUMOR, LARYNX: TUMOR, TRACHEA: TUMOR, LUNG: TUMOR, Tumor Site: Type of Lesion: NASAL CAVITY: TUMOR, LARYNX: TUMOR, TRACHEA: TUMOR, LUNG: TUMOR)?
A: active; positive

Q: And the carcinogen call (Species: HAMSTER, Strain/Sex: EUROPEAN/MALE, Route: GAVAGE, Dose: 0, 37 MG/KG 1/WK FOR DURATION OF STUDY (STUDY DURATION: LIFETIME), Tumor Site: Type of Lesion: NASAL CAVITY: TUMOR, LIVER: HEMANGIOENDOTHELIOMA)?
A: active; positive

Q: What about the carcinogen call (Species: HAMSTER, Strain/Sex: EUROPEAN/MALE, Route: GAVAGE, Dose: 0, 112 MG/KG 1/WK FOR DURATION OF STUDY (STUDY DURATION: LIFETIME), Tumor Site: Type of Lesion: NASAL CAVITY: TUMOR, LUNG: TUMOR) of the same molecule?
A: active; positive

Q: What about the carcinogen call (Species: HAMSTER, Strain/Sex: EUROPEAN/MALE, Route: SUBCUTANEOUS, Dose: 0, 85 MG/KG 1/WK FOR DURATION OF STUDY (STUDY DURATION: LIFETIME), Tumor Site: Type of Lesion: NASAL CAVITY: TUMOR, LARYNX: TUMOR, TRACHEA: TUMOR, LUNG: TUMOR, Tumor Site: Type of Lesion: NASAL CAVITY: TUMOR, LARYNX: TUMOR, TRACHEA: TUMOR, LUNG: TUMOR) of the same molecule?
A: active; positive

Q: And the carcinogen call (Species: HAMSTER, Strain/Sex: SYRIAN/MALE,FEMALE, Route: GAVAGE, Dose: 9-74 MG/KG 1/WK FOR LIFE, Tumor Site: Type of Lesion: PANCREAS, TRACHEA, LUNG, LIVER, NASAL CAVITY, FORESTOMACH, GALL BLADDER, LARYNX, Tumor Site: Type of Lesion: PANCREAS, TRACHEA, LUNG, LIVER, NASAL CAVITY, FORESTOMACH, GALL BLADDER, LARYNX)?
A: active; positive

Q: What about the carcinogen call (Species: HAMSTER, Strain/Sex: SYRIAN/MALE,FEMALE, Route: SUBCUTANEOUS, Dose: 8, 16, 32 MG/KG 1/WK FOR LIFE, Dose: 8, 16, 32 MG/KG 1/WK FOR LIFE, Tumor Site: Type of Lesion: NASAL CAVITY, LARYNX, TRACHEA, LUNG, FORESTOMACH, PANCREAS, VAGINA, Tumor Site: Type of Lesion: NASAL CAVITY, LARYNX, TRACHEA, LUNG, FORESTOMACH, PANCREAS, VAGINA) of the same molecule?
A: active; positive

Q: What about the carcinogen call (Species: RAT, Strain/Sex: F344/FEMALE, Route: INTRAVESICULAR, Dose: 0, 6 MG IN 0.2 ML ETHANOL: DEIONIZED WATER (1:3) 2/WK FOR 18 WK (TOTAL DOSE 1.5 MMOL) (STUDY DURATION: LIFESPAN), Tumor Site: Type of Lesion: ESOPHAGUS: TUMOR) of the same molecule?
A: active; positive

Q: And the carcinogen call (Species: RAT, Strain/Sex: F344/FEMALE, Route: ORAL, Dose: 20 MG/L IN DRINKING WATER FOR 30 WK, Tumor Site: Type of Lesion: ESOPHAGUS: PAPILLOMA, CARCINOMA, TONGUE: PAPILLOMA, CARCINOMA)?
A: active; positive

Q: What about the carcinogen call (Species: RAT, Strain/Sex: F344/FEMALE, Route: ORAL, Dose: 50 MG/L IN DRINKING WATER FOR 22 WK, Tumor Site: Type of Lesion: ESOPHAGUS: PAPILLOMA, CARCINOMA) of the same molecule?
A: active; positive

Q: And the carcinogen call (Species: RAT, Strain/Sex: SPRAGUE-DAWLEY/MALE,FEMALE, Route: SUBCUTANEOUS, Dose: 0, 1/100, 1/10 OF LD50 1/WK FOR LIFE (STUDY DURATION: LIFETIME), Dose: 0, 1/100, 1/10 OF LD50 1/WK FOR LIFE (STUDY DURATION: LIFETIME), Tumor Site: Type of Lesion: ESOPHAGUS: CARCINOMA)?
A: active; positive

Q: And the carcinogen call (Species: RAT, Strain/Sex: SPRAGUE-DAWLEY/MALE,FEMALE, Route: SUBCUTANEOUS, Dose: 0, 1/100, 1/10 OF LD50 1/WK FOR LIFE TO RATS WITH ESOPHAGOJEJUNOSTOMY (STUDY DURATION: LIFETIME), Dose: 0, 1/100, 1/10 OF LD50 1/WK FOR LIFE TO RATS WITH ESOPHAGOJEJUNOSTOMY (STUDY DURATION: LIFETIME), Tumor Site: Type of Lesion: ESOPHAGUS: CARCINOMA)?
A: active; positive

Q: What about the carcinogen call (Species: RAT, Strain/Sex: SPRAGUE-DAWLEY/MALE, Route: ORAL, Dose: 50 MG/L IN DRINKING WATER (20 ML/D 5 D/WK) FOR 30 WK, Tumor Site: Type of Lesion: ESOPHAGUS: PAPILLOMA, SQUAMOUS CELL CARCINOMA, NASAL TURBINATES: ADENOCARCINOMA) of the same molecule?
A: active; positive

Q: `O=c1[nH]c2ccccc2c2ccccc12` was tested. Which carcinogen call (Species: MOUSE, Strain/Sex: CD-1/FEMALE, Route: INTRAPERITONEAL, Dose: 0, 5, 10 AND 20 µL OF A 0.05 MOLAR SOLUTION ON DAYS 1, 8 AND 15 OF LIFE RESPECTIVELY (TOTAL DOSE: 1.75 UMOL) (STUDY DURA, Dose: 0, 5, 10 AND 20 µL OF A 0.05 MOLAR SOLUTION ON DAYS 1, 8 AND 15 OF LIFE RESPECTIVELY (TOTAL DOSE: 1.75 UMOL) (STUDY DURA) did it give?
A: inactive; negative

Q: And the carcinogen call (Species: MOUSE, Strain/Sex: CD-1/MALE, Route: INTRAPERITONEAL, Dose: 0, 5, 10 AND 20 µL OF A 0.05 MOLAR SOLUTION ON DAYS 1, 8 AND 15 OF LIFE RESPECTIVELY (TOTAL DOSE: 1.75 UMOL) (STUDY DURA, Dose: 0, 5, 10 AND 20 µL OF A 0.05 MOLAR SOLUTION ON DAYS 1, 8 AND 15 OF LIFE RESPECTIVELY (TOTAL DOSE: 1.75 UMOL) (STUDY DURA)?
A: inactive; negative

Q: What does the source list for `Clc1ccc2c(c1)C(c1ccccc1)=NCc1nncn1-2`?
A: carcinogen call (Species: MOUSE, Strain/Sex: B6C3F1/FEMALE, Route: ORAL, Dose: 0, 0.8, 3, 10 MG/KG IN DIET FOR 2 YR (STUDY DURATION: 2 YR), Dose: 0, 0.8, 3, 10 MG/KG IN DIET FOR 2 YR (STUDY DURATION: 2 YR)): inactive; negative; carcinogen call (Species: MOUSE, Strain/Sex: B6C3F1/FEMALE, Route: ORAL, Dose: 0, 0.8, 3, 10 MG/KG/D IN DIET FOR 2 YR (STUDY DURATION: 2 YR), Dose: 0, 0.8, 3, 10 MG/KG/D IN DIET FOR 2 YR (STUDY DURATION: 2 YR)): inactive; negative; carcinogen call (Species: MOUSE, Strain/Sex: B6C3F1/MALE, Route: ORAL, Dose: 0, 0.8, 3, 10 MG/KG IN DIET FOR 2 YR (STUDY DURATION: 2 YR), Dose: 0, 0.8, 3, 10 MG/KG IN DIET FOR 2 YR (STUDY DURATION: 2 YR)): inactive; negative; carcinogen call (Species: MOUSE, Strain/Sex: B6C3F1/MALE, Route: ORAL, Dose: 0, 0.8, 3, 10 MG/KG/D IN DIET FOR 2 YR (STUDY DURATION: 2 YR), Dose: 0, 0.8, 3, 10 MG/KG/D IN DIET FOR 2 YR (STUDY DURATION: 2 YR)): inactive; negative; carcinogen call (Species: RAT, Strain/Sex: SPRAGUE-DAWLEY/FEMALE, Route: ORAL, Dose: 0, 0.5, 2, 10 MG/KG IN DIET FOR 2 YR (STUDY DURATION: 2 YR), Dose: 0, 0.5, 2, 10 MG/KG IN DIET FOR 2 YR (STUDY DURATION: 2 YR)): inactive; negative; carcinogen call (Species: RAT, Strain/Sex: SPRAGUE-DAWLEY/MALE, Route: ORAL, Dose: 0, 0.5, 2, 10 MG/KG IN DIET FOR 2 YR (STUDY DURATION: 2 YR), Dose: 0, 0.5, 2, 10 MG/KG IN DIET FOR 2 YR (STUDY DURATION: 2 YR)): inactive; negative; carcinogen call (Species: RAT, Strain/Sex: STRAIN-CD/FEMALE, Route: ORAL, Dose: 0, 0.5, 2, 10 MG/KG/D IN DIET FOR 2 YR (STUDY DURATION: 2 YR), Dose: 0, 0.5, 2, 10 MG/KG/D IN DIET FOR 2 YR (STUDY DURATION: 2 YR)): inactive; negative; carcinogen call (Species: RAT, Strain/Sex: STRAIN-CD/MALE, Route: ORAL, Dose: 0, 0.5, 2, 10 MG/KG/D IN DIET FOR 2 YR (STUDY DURATION: 2 YR), Dose: 0, 0.5, 2, 10 MG/KG/D IN DIET FOR 2 YR (STUDY DURATION: 2 YR)): inactive; negative
